Reference: patent publication US20260258035A1, “FIVE-MEMBERED AND SIX-MEMBERED NITROGEN-CONTAINING COMPOUND, AND INTERMEDIATE, PREPARATION METHOD AND USE THEREOF” (HANGZHOU SYNRX THERAPEUTICS BIOMEDICAL TECHNOLOGY CO., LTD., priority 2022, published 2026)
Read-outs that look alike come from different tables or passages of the source.

What was measured:
HCC1806 = experiment: Cell viability assay (CellTiter-Glo); type: cell-based, Human; conditions: HCC1806, 7 days, CellTiter-Glo, read-out: IC50 (nM) in cell viability assay
PARG = PARG (Homo sapiens, UniProt Q86W56); experiment: Biochemical assay (PARG, TFMU-ADPr substrate)
PARG, sequence (Q86W56 whole entry): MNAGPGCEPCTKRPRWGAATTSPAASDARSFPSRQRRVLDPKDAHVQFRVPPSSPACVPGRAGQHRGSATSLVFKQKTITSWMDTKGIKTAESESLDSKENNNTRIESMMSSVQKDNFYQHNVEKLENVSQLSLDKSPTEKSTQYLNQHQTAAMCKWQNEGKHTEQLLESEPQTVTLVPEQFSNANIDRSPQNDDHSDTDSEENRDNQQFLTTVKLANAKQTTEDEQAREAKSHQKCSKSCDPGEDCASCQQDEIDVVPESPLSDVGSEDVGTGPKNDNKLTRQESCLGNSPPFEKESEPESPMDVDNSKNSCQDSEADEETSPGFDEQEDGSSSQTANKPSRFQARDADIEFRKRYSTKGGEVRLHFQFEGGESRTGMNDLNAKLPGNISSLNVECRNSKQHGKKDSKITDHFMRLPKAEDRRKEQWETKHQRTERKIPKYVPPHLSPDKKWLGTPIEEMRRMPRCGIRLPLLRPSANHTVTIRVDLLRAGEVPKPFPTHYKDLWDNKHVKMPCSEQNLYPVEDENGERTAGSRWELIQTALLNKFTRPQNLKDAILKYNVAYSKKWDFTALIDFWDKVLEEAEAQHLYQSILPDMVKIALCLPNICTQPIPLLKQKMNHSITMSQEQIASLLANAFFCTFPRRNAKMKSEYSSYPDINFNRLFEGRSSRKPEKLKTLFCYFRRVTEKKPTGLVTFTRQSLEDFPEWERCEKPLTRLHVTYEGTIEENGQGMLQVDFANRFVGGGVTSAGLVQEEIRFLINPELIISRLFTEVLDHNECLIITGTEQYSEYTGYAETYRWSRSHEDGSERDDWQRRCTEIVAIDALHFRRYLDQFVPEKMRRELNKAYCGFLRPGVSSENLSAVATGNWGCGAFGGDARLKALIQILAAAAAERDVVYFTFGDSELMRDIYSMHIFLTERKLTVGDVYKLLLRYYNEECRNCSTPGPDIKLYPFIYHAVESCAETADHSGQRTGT

Row | SMILES | IC50 (HCC1806; Homo sapiens, HCC1806, 168 h) [nM] | IC50 (PARG; PARG, TFMU-ADPr substrate) [nM] | IC50 (HCC1806) [nM] | IC50 (PARG; 4 nM PARG, 66.2 uM TFMU-ADPr, 3 min at room temperature) [nM]
1 | N#CC1(NS(=O)(=O)c2cc(N3CCN(C(=O)CCC(=O)O)CC3)c3cnc(-c4nnc(C(F)(F)F)s4)n3c2)CC1 [Example 253, 4-(4-(6-(N-(1-cyanocyclopropyl)sulfamoyl)-3-(5-(trifluoromethyl)-1,3,4-thiadiazol-2-yl)imidazo[1,5-a]pyridin-8-yl)piperazin-1-yl)-4-oxobutanoic acid] | 1000 | 57.5 |  | 
2 | C[C@H]1CN(c2cc(S(=O)(=O)NC3(CF)COC3)cn3c(-c4nnc(C(F)F)s4)ncc23)C[C@H](C)N1 [Example 359, 3-(5-(difluoromethyl)-1,3,4-thiadiazol-2-yl)-8-((3S,5S)-3,5-dimethylpiperazin-1-yl)-N-(3-(fluoromethyl)oxetan-3-yl)imidazo[1,5-a]pyridine-6-sulfonamide] | 47 | 1.44 |  | 
3 | CC1(NS(=O)(=O)c2cc(N3CCN(C(=O)C4CCOC4)CC3)c3cnc(-c4nnc(C(F)(F)F)s4)n3c2)CC1 (stereo not drawn) [Example 293, N-(1-methylcyclopropyl)-8-(4-(tetrahydrofuran-3-carbonyl)piperazin-1-yl)-3-(5-(trifluoromethyl)-1,3,4-thiadiazol-2-yl)imidazo[1,5-a]pyridine-6-sulfonamide] | 97 | 9.12 |  | 
4 | CC(C)C(=O)N1CCN(c2cc(S(=O)(=O)NC3CC3)cn3c(-c4nnc(C(F)(F)F)s4)nc(C#N)c23)CC1 [Example 166, 1-cyano-N-cyclopropyl-8-(4-isobutyrylpiperazin-1-yl)-3-(5-(trifluoromethyl)-1,3,4-thiadiazol-2-yl)imidazo[1,5-a]pyridine-6-sulfonamide] | 882 | 13.2 |  | 
5 | CC1(NS(=O)(=O)c2cc(N3CCN(C(=O)[C@H]4C[C@H](F)CN4)CC3)c3cnc(-c4nnc(C(F)(F)F)s4)n3c2)CC1 [Example 323, 8-(4-((2R,4S)-4-fluoropyrrolidine-2-carbonyl)piperazin-1-yl)-N-(1-methylcyclopropyl)-3-(5-(trifluoromethyl)-1,3,4-thiadiazol-2-yl)imidazo[1,5-a]pyridine-6-sulfonamide] | 181 | 5.41 |  | 
6 | CC(C)(O)C1CCN(c2cc(S(=O)(=O)NC3(CF)CC3)cn3c(-c4nnc(C(F)F)s4)nnc23)CC1 [Example 109, 3-(5-(difluoromethyl)-1,3,4-thiadiazol-2-yl)-N-(1-(fluoromethyl)cyclopropyl)-8-(4-(2-hydroxypropan-2-yl)piperidin-1-yl)-[1,2,4]triazolo[4,3-a]pyridine-6-sulfonamide] | 5000 to 30000 | 30.5 | 7000 | < 100
7 | CC1(NS(=O)(=O)c2cc(N3CCN(C(=O)C4CNC4)CC3)c3cnc(-c4nnc(C(F)(F)F)s4)n3c2)CC1 [Example 277, 8-(4-(azetidine-3-carbonyl)piperazin-1-yl)-N-(1-methylcyclopropyl)-3-(5-(trifluoromethyl)-1,3,4-thiadiazol-2-yl)imidazo[1,5-a]pyridine-6-sulfonamide] | 4470 | 25.1 |  | 
8 | N#CC1(NS(=O)(=O)c2cc(N3CCC4(CC3)COC4)c3cnc(-c4nnc(C(F)(F)F)s4)n3c2)CC1 [Example 209, N-(1-cyanocyclopropyl)-8-(2-oxa-7-azaspiro[3.5]nonan-7-yl)-3-(5-(trifluoromethyl)-1,3,4-thiadiazol-2-yl)imidazo[1,5-a]pyridine-6-sulfonamide] | 765 | 60.3 |  | 
9 | [2H]c1nc(-c2nnc(C(F)F)s2)n2cc(S(=O)(=O)NC3(C)COC3)cc(N3CCNC(COC)C3)c12 (stereo not drawn) [Example 158, 3-(5-(difluoromethyl)-1,3,4-thiadiazol-2-yl)-8-(3-(methoxymethyl)piperazin-1-yl)-N-(3-methyloxetan-3-yl)imidazo[1,5-a]pyridine-6-sulfonamide-1-d] | 1090 | 15.8 |  | 
10 | N#CC1(NS(=O)(=O)c2cc(N3CCN(C(=O)[C@H]4CCCN4)CC3)c3cnc(-c4nnc(C(F)(F)F)s4)n3c2)CC1 [Example 265, (R)-N-(1-cyanocyclopropyl)-8-(4-prolylpiperazin-1-yl)-3-(5-(trifluoromethyl)-1,3,4-thiadiazol-2-yl)imidazo[1,5-a]pyridine-6-sulfonamide] | 8000 | 158 |  | 
11 | CC(C)C(=O)N1CCN(c2cc(S(=O)(=O)NC3(C#N)CC3)cn3c(-c4nnc(C(F)(F)F)s4)nc(Cl)c23)C[C@H]1C [Example 130, (R)-1-chloro-N-(1-cyanocyclopropyl)-8-(4-isobutyryl-3-methylpiperazin-1-yl)-3-(5-(trifluoromethyl)-1,3,4-thiadiazol-2-yl)imidazo[1,5-a]pyridine-6-sulfonamide] | 1200 | 36.3 |  | 
12 | C[C@H]1CN(c2cc(S(=O)(=O)NC3(C)COC3)cn3c(-c4nnc(C(F)F)s4)nc(Cl)c23)C[C@H](CO)N1 [Example 402, 1-chloro-3-(5-(difluoromethyl)-1,3,4-thiadiazol-2-yl)-8-((3R,5S)-3-(hydroxymethyl)-5-methylpiperazin-1-yl)-N-(3-methyloxetan-3-yl)imidazo[1,5-a]pyridine-6-sulfonamide] | 1840 | 20.9 |  | 
13 | N#CC1(NS(=O)(=O)c2cc(N3CCN(C(=O)[C@@H]4CCNC4)CC3)c3cnc(-c4nnc(C(F)(F)F)s4)n3c2)CC1 [Example 271, (R)-N-(1-cyanocyclopropyl)-8-(4-(pyrrolidine-3-carbonyl)piperazin-1-yl)-3-(5-(trifluoromethyl)-1,3,4-thiadiazol-2-yl)imidazo[1,5-a]pyridine-6-sulfonamide] | 36200 | 11.5 |  | 
14 | Cn1ccnc1N1CCN(c2cc(S(=O)(=O)NC3(C#N)CC3)cn3c(-c4nnc(C(F)(F)F)s4)ncc23)CC1 [Example 238, N-(1-cyanocyclopropyl)-8-(4-(1-methyl-1H-imidazol-2-yl)piperazin-1-yl)-3-(5-(trifluoromethyl)-1,3,4-thiadiazol-2-yl)imidazo[1,5-a]pyridine-6-sulfonamide] | 15000 | 38 |  | 
15 | N#CC1(NS(=O)(=O)c2cc(N3CCN(C(=O)C4CC(N)C4)CC3)c3cnc(-c4nnc(C(F)(F)F)s4)n3c2)CC1 (stereo not drawn) [Example 273, 8-(4-(3-aminocyclobutane-1-carbonyl)piperazin-1-yl)-N-(1-cyanocyclopropyl)-3-(5-(trifluoromethyl)-1,3,4-thiadiazol-2-yl)imidazo[1,5-a]pyridine-6-sulfonamide] | 5940 | 1.91 |  | 
16 | N#CC1(NS(=O)(=O)c2cc(N3CCC(c4nnco4)CC3)c3cnc(-c4nnc(C(F)(F)F)s4)n3c2)CC1 [Example 221, 8-(4-(1,3,4-oxadiazol-2-yl)piperidin-1-yl)-N-(1-cyanocyclopropyl)-3-(5-(trifluoromethyl)-1,3,4-thiadiazol-2-yl)imidazo[1,5-a]pyridine-6-sulfonamide] | 150 | 43.7 |  | 
17 | CC1(NS(=O)(=O)c2cc(N3CCN(C(=O)[C@H]4CCN4)CC3)c3cnc(-c4nnc(C(F)(F)F)s4)n3c2)CC1 [Example 286, (R)-8-(4-(azetidine-2-carbonyl)piperazin-1-yl)-N-(1-methylcyclopropyl)-3-(5-(trifluoromethyl)-1,3,4-thiadiazol-2-yl)imidazo[1,5-a]pyridine-6-sulfonamide] | 235 | 3.98 |  | 
18 | CC(C)OCC1CN(c2cc(S(=O)(=O)NC3(C)COC3)cn3c(-c4nnc(C(F)F)s4)nc(Cl)c23)CCN1 (stereo not drawn) [Example 137, 1-chloro-3-(5-(difluoromethyl)-1,3,4-thiadiazol-2-yl)-8-(3-(isopropoxymethyl)piperazin-1-yl)-N-(3-methyloxetan-3-yl)imidazo[1,5-a]pyridine-6-sulfonamide] | 332 | 15.8 |  | 
19 | CC1(C(=O)N2CCN(c3cc(S(=O)(=O)NC4(C#N)CC4)cn4c(-c5nnc(C(F)(F)F)s5)ncc34)CC2)CC1 [Example 225, N-(1-cyanocyclopropyl)-8-(4-(1-methylcyclopropane-1-carbonyl)piperazin-1-yl)-3-(5-(trifluoromethyl)-1,3,4-thiadiazol-2-yl)imidazo[1,5-a]pyridine-6-sulfonamide] | 600 | 7.94 |  | 
20 | CC1(NS(=O)(=O)c2cc(N3CCC(O)C(O)C3)c3cnc(-c4nnc(C(F)F)s4)n3c2)CC1 (stereo not drawn) [Example 349, 3-(5-(difluoromethyl)-1,3,4-thiadiazol-2-yl)-8-(3,4-dihydroxypiperidin-1-yl)-N-(1-methylcyclopropyl)imidazo[1,5-a]pyridine-6-sulfonamide] | 455 | 3.98 |  | 
21 | [2H]C([2H])([2H])OCC1CN(c2cc(S(=O)(=O)NC3(C)COC3)cn3c(-c4nnc(C(F)F)s4)nc(Cl)c23)CCN1 (stereo not drawn) [Example 391, 1-chloro-3-(5-(difluoromethyl)-1,3,4-thiadiazol-2-yl)-8-(3-((methoxy-d3)methyl)piperazin-1-yl)-N-(3-methyloxetan-3-yl)imidazo[1,5-a]pyridine-6-sulfonamide] | 177 | 5.01 |  | 
22 | COC1(C(=O)N2CC=C(c3cc(S(=O)(=O)NC4(C#N)CC4)cn4c(-c5nnc(C(F)(F)F)s5)ncc34)CC2)CC1 [Example 379, N-(1-cyanocyclopropyl)-8-(1-(1-methoxycyclopropane-1-carbonyl)-1,2,3,6-tetrahydropyridin-4-yl)-3-(5-(trifluoromethyl)-1,3,4-thiadiazol-2-yl)imidazo[1,5-a]pyridine-6-sulfonamide] | 20 | 2.09 |  | 
23 | N#CC1(NS(=O)(=O)c2cc(N3CCN(C(=O)C(O)C(F)(F)F)CC3)c3cnc(-c4nnc(C(F)(F)F)s4)n3c2)CC1 (stereo not drawn) [Example 231, N-(1-cyanocyclopropyl)-8-(4-(3,3,3-trifluoro-2-hydroxypropanoyl)piperazin-1-yl)-3-(5-(trifluoromethyl)-1,3,4-thiadiazol-2-yl)imidazo[1,5-a]pyridine-6-sulfonamide] | 500 | 8.32 |  | 
